Assay results as given in PubChem BioAssay (NCI).
Where “and” joins values, the source holds several entries; their conditions need not be identical. Identical values can stand only once.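 Tested at 5 concentrations; 48 h exposure; 96-well plates; endpoints linearly interpolated, else capped at highest concentration. GI50: concentration for 50% inhibition of growth. TGI: concentration producing complete growth inhibition.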 Where a SMILES comes first, the peptide text is derived from it. [ ]: non-standard residue; d: D form. The star is where a group is joined. ξ: configuration not given here. ξPhe(4-NO2) = NC(Cc1ccc([N+](=O)[O-])cc1)C(=O)O; Boc = CC(C)(C)OC(=O)*; OBn = c1ccc(CO*)cc1

Experiments:
Assay in all cases: NCI tumour cell line growth inhibition, 48 h
HS 578T breast = test system: HS 578T breast
HCC-2998 colon = test system: HCC-2998 colon
A549 NSCLC = test system: A549 NSCLC
NCI-H460 lung = test system: NCI-H460 lung
786-0 renal = test system: 786-0 renal
HOP-92 NSCLC = test system: HOP-92 NSCLC
SN12C renal = test system: SN12C renal
HCT-116 colon = test system: HCT-116 colon
HOP-62 NSCLC = test system: HOP-62 NSCLC
K-562 leukemia = test system: K-562 leukemia
U251 CNS = test system: U251 CNS
A498 renal = test system: A498 renal
MOLT-4 leukemia = test system: MOLT-4 leukemia
SNB-19 CNS = test system: SNB-19 CNS
RPMI-8226 leukemia = test system: RPMI-8226 leukemia
OVCAR-4 ovarian = test system: OVCAR-4 ovarian
SK-MEL-28 melanoma = test system: SK-MEL-28 melanoma
SF-539 CNS = test system: SF-539 CNS

Structure (SMILES)	TGI (HS 578T breast)	TGI (HCC-2998 colon)	TGI (A549 NSCLC)	TGI (NCI-H460 lung)	TGI (786-0 renal)	TGI (HOP-92 NSCLC)	TGI (SN12C renal) [µM]	TGI (HCT-116 colon)	TGI (HOP-62 NSCLC)	TGI (K-562 leukemia)	TGI (U251 CNS)	TGI (A498 renal)	TGI (MOLT-4 leukemia)	TGI (SNB-19 CNS)	TGI (RPMI-8226 leukemia)	TGI (OVCAR-4 ovarian)	TGI (SK-MEL-28 melanoma)	TGI (SF-539 CNS)	GI50 (HOP-92 NSCLC)	GI50 (A498 renal) [µM]
CC(C)(C)OC(=O)NC(Cc1ccc([N+](=O)[O-])cc1)C(=O)NCC(=O)OCc1ccccc1 (configuration not stated) (Boc-[ξPhe(4-NO2)]-Gly-OBn)	54 µM	42 µM	> 100 µM	49.4 µM	33.8 µM	65.9 µM	45.9	68.2 µM	36.7 µM	52.3 µM	40.6 µM	> 100 µM	48.1 µM	> 100 µM	45.9 µM	> 100 µM	47.3 µM			
Cn1cc2c(=O)n3ncn(-c4ccc(Br)cc4)c3nc2n1	> 100 µM	> 100 µM	> 100 µM	> 100 µM	> 100 µM	> 100 µM	> 100	> 100 µM		> 100 µM	> 100 µM	> 100 µM	> 100 µM	> 100 µM	> 100 µM	> 100 µM	> 100 µM	> 100 µM		
COc1ccc2c(c1)N(C(C)=O)CN1C(=O)CCC21 (configuration not stated)	> 100 µM	> 100 µM	> 100 µM	> 100 µM	> 100 µM	> 100 µM	> 100	> 100 µM	> 100 µM	> 100 µM	> 100 µM	> 100 µM	> 100 µM	> 100 µM	> 100 µM	> 100 µM	> 100 µM	> 100 µM		
CN(C)c1ncnc2c1ncn2C1C=CC(COS(N)(=O)=O)C1 (configuration not stated)	> 100 µM	> 100 µM	> 100 µM	> 100 µM	> 100 µM	> 100 µM	> 100	> 100 µM	> 100 µM	> 100 µM	> 100 µM	> 100 µM	> 100 µM	> 100 µM	> 100 µM	> 100 µM	> 100 µM	> 100 µM		
CC(NC(=O)/C(C#N)=C/c1ccc2[nH]ccc2c1)c1ccccc1 (configuration not stated)	66.4 µM	34 µM	55.4 µM	34.9 µM	31.8 µM	33.5 µM	35	28.1 µM	33.4 µM	> 77.9 µM	29.4 µM	32.1 µM	52.3 µM	45.1 µM	> 73.1 µM	49.5 µM	36.9 µM	34.9 µM		
CN(C)CCOC1(Cc2ccc(Cl)cc2Cl)CCC(C(C)(C)C)CC1 (configuration not stated)	5.2 µM and 5.27 µM	3.37 µM and 3.23 µM	5.85 µM and 4.22 µM	3.18 µM and 2.66 µM	3.33 µM and 2.98 µM	3.54 µM and 5.92 µM	3.32	3.13 µM and 3.45 µM	3.06 µM and 3.32 µM	3.77 µM and 3.94 µM	2.9 µM and 3.45 µM	5.18 µM and 3.95 µM	4.72 µM and 4.23 µM	3.44 µM and 3.74 µM	4.92 µM and 5.42 µM	3.87 µM and 3.85 µM	3.2 µM and 2.83 µM	14.5 µM and 3.46 µM	1.8 µM and 2.12 µM	2.07
O=c1cc(NCC2CCCCC2)[nH]c(=O)[nH]1	> 100 µM	> 100 µM	> 100 µM	> 100 µM	> 100 µM	> 100 µM	> 100	> 100 µM	> 100 µM	> 100 µM	> 100 µM	> 100 µM		> 100 µM	> 100 µM	> 100 µM	> 100 µM	> 100 µM		
CCOC(=O)C1=C(C)N(C)C(=S)NC1c1cccc(O)c1 (configuration not stated)	> 100 µM	92.6 µM	> 100 µM	> 100 µM	> 100 µM	75.1 µM	> 100	> 100 µM	> 100 µM	> 100 µM	> 100 µM	84 µM	> 100 µM	> 100 µM	> 100 µM	> 100 µM	> 100 µM	> 100 µM		
O=C1SC(c2ccc(Cl)cc2)(c2ccc(Cl)cc2)c2ccccc21	> 100 µM	> 100 µM	> 100 µM	> 100 µM	> 100 µM	> 100 µM	> 100	55.3 µM	> 100 µM	> 100 µM	> 100 µM	> 100 µM	> 100 µM	> 100 µM	> 100 µM	> 100 µM	> 100 µM	> 100 µM		
C/C(=N\NS(=O)(=O)c1ccc(C)cc1)C(CN(C)C)C(c1ccccc1)c1c(O)c2ccccc2oc1=O (configuration not stated)	> 100 µM	> 100 µM	> 100 µM	> 100 µM	> 100 µM	> 100 µM	> 100	> 100 µM	> 100 µM	> 100 µM	> 100 µM	> 100 µM	> 100 µM	> 100 µM	> 100 µM	> 100 µM	> 100 µM	> 100 µM		
O=[N+]([O-])/C(Cl)=C(\Nc1ccccc1)C(Cl)=C(Cl)Cl	69.6 µM	94.4 µM	95 µM	> 100 µM	> 100 µM	69.5 µM	> 100	> 100 µM	56.6 µM	68.6 µM	> 100 µM	65.4 µM	> 100 µM	> 100 µM	78.9 µM	> 100 µM	> 100 µM	47.4 µM		
COc1cc(/C=C2/SC(c3ccccc3)N(c3ccc(Cl)cc3)C2=O)cc(OC)c1OC (configuration not stated)	> 100 µM	> 100 µM	> 100 µM	> 100 µM	> 100 µM	> 100 µM	> 100	> 100 µM	> 100 µM	> 100 µM	> 100 µM	> 100 µM	> 100 µM	> 100 µM	> 100 µM	> 100 µM	> 100 µM	> 100 µM		
Cc1cc(NC(=O)C(=O)Cc2cnc3ccccc3n2)c(S(=O)(=O)O)cc1Cl	> 100 µM	> 100 µM	> 100 µM	> 100 µM	> 100 µM	> 100 µM	> 100	> 100 µM		> 100 µM	> 100 µM	> 100 µM	> 100 µM	> 100 µM	> 100 µM	> 100 µM	> 100 µM	> 100 µM		
